Consider one molecule from patent US10428060B2, “PI-kinase inhibitors with anti-infective activity” (The Board of Trustees of the Leland Stanford Junior …, priority 2011, dated 2019).

Usually IC50 stands for the concentration that inhibits the measured activity by half. Read a low IC50 as greater potency in that assay.

The structures appear in SMILES notation.

For one assay, the target named is T1, PI3K p110a (Homo sapiens, UniProt P42336).
T1 construct: purchased Millipore
Kind of assay: PI3K p110a kinase assay. The assay is classed as biochemical. Here is the method:
In the assays described here, p110α-p85 complex and p110γ were acquired from Millipore. Assays were performed with Lα-phosphatidylinositol (Avanti) as described in Knight et al. Nat Protoc. […] Inhibitor series were prepared 10% DMSO as 5× stocks for the assay. […] COS-7 cells were cultured in 10 cm dishes and transfected at 70% confluence with 10 μg of plasmid DNA (HA-tagged bovine PI4KIIIβ, HA-tagged human PI4KIIIα) using Lipofectamine 2000 and 5 ml Opti-MEM following the manufacturer's instructions. After 5 hours the transfection medium was replaced with 10 ml complete DMEM. 36 hrs post transfection, cells were washed once with 5 ml PBS (pH 7.4) and lysed in 1 ml of lysis buffer (1) on ice. […] To the lysates was added 200 μl of protein G Sepharose 4 fast flow beads that were prewashed with PBS and lysis buffer and 2 μg of anti-HA antibody. The tubes were then incubated overnight at 4 degrees C. in a tube rotator. […] Kinase reactions were run in a mixture of 45 μL of PI buffer (1 mM PI in kinase buffer), 10 μL of immunoprecipitated beads, 2 µL of inhibitors (dissolved and diluted in DMSO) or DMSO and 5 μL of [γ-^32P]-ATP (1 mM and 2 μCi/tube). […] Samples were counted in a scintillation beta counter after adding 5 ml of Instafluor (Perkin-Elmer). […]

In the next assay the target is T2, PI4KIIIB (Bos taurus, UniProt O02810).
T2 construct: made in house; host or cells: COS-7 cells, transient transfection, anti-HA immunoprecipitate on protein G Sepharose beads
T2 sequence (O02810 whole entry): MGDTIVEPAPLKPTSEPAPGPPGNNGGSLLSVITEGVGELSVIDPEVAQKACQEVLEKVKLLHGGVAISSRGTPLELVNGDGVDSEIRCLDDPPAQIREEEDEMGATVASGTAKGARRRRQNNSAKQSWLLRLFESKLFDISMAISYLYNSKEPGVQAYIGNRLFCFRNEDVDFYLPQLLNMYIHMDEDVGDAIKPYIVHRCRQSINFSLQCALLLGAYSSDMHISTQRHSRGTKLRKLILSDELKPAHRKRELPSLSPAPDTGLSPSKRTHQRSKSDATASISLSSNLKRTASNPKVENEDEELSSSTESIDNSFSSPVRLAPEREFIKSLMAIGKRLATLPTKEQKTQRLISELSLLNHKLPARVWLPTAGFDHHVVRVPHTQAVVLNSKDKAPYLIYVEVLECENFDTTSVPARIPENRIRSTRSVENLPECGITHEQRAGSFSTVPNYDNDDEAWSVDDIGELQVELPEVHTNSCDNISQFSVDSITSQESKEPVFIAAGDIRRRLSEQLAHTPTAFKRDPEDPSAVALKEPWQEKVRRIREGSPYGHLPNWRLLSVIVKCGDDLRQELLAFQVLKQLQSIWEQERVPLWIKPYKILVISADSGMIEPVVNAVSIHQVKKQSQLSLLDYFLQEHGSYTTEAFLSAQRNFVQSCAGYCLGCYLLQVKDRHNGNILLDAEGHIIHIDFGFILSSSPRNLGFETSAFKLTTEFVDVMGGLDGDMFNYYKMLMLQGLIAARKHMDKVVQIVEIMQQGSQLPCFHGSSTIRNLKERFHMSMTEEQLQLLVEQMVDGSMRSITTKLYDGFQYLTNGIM
Kind of assay: PI4KIIIB kinase assay. The assay is classed as biochemical, bovine.

T1 sequence (P42336 whole entry): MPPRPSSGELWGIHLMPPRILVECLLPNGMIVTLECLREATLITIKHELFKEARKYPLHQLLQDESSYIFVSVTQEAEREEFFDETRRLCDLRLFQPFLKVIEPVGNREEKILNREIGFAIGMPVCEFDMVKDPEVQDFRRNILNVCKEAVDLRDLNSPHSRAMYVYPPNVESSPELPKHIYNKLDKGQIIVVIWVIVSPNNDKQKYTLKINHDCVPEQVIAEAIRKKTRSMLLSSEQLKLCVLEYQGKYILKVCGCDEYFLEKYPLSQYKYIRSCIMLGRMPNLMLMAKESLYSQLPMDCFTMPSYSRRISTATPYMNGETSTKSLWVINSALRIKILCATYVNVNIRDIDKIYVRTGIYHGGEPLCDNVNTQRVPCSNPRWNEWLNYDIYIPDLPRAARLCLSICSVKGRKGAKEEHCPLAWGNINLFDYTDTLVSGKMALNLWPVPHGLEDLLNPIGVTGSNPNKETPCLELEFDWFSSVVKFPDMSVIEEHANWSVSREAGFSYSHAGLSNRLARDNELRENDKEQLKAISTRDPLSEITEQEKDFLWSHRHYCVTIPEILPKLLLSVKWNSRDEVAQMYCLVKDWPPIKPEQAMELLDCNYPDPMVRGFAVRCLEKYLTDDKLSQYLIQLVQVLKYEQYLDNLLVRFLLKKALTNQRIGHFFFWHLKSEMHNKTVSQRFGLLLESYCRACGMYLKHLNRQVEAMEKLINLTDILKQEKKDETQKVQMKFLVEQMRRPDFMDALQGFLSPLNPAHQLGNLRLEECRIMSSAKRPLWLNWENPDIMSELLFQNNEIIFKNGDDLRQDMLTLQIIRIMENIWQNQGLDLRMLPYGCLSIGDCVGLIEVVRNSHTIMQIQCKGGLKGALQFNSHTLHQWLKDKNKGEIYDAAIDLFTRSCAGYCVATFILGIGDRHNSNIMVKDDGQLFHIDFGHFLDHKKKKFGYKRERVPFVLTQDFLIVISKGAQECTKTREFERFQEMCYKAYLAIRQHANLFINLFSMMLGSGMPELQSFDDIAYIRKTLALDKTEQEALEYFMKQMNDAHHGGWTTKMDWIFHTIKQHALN
T1 sequence (P27986 whole entry partner): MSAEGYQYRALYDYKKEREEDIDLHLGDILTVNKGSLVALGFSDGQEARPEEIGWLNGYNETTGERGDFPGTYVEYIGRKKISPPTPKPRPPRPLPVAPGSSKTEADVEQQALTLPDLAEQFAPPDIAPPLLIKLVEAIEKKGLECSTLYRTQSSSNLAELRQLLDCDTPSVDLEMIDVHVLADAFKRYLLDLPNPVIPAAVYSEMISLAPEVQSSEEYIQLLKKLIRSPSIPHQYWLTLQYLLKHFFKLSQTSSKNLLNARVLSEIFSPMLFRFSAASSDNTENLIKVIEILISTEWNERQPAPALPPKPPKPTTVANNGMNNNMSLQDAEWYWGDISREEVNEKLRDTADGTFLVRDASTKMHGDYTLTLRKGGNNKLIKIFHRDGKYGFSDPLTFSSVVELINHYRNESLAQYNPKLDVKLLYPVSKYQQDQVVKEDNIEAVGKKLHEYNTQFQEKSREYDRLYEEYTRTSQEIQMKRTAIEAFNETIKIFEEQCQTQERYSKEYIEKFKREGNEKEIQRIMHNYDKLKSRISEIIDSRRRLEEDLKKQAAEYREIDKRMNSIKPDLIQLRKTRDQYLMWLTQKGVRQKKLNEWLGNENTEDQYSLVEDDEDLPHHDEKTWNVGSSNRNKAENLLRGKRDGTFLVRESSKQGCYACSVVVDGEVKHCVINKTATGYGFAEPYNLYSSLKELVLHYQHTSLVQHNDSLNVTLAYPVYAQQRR

As to `COc1ncc(-c2sc(NC(=O)CC3CCOCC3)nc2C)cc1S(=O)(=O)NC1CCCC(O)C1` (centres unmarked) [Compound S-263], the IC50 is 1 to 10 µM against PI3K p110a and less than 0.1 µM against PI4KIIIB.
